Experimental data reported in patent US20210338550A1, “ANTIMICROBIAL MIXTURE CONTAINING 4-(3-ETHOXY-4-HYDROXYPHENYL)BUTAN-2-ONE AND CHLORPHENESIN, AND COSMETIC COMPOSITION CONTAINING SAME” (L'OREAL, priority 2017, published 2021).

Test system: Aspergillus niger ATCC 6275
Assay: Determination of synergistic antimicrobial activity in MIC (96-well microplate, optical density at 620 nm)
Assay type: cell-based
Conditions: for microbial growth percentage: 32.5° C., 24 to 48 hours
From the text: FIC Index=(MICa with B/MICa)+(MICb with A/MICb)
with: • MICa with B: minimum concentration of product A in the combination A+B which makes it possible to obtain an inhibitory effect. • MICb with A: minimum concentration of product B in the combination A+B which makes it possible to obtain the inhibitory effect. • MICa: minimum inhibitory concentration of product A alone. • MICb: minimum inhibitory concentration of product B alone.
As regards the combinations tested, MICa with b and MICb with a are the respective concentrations of A and of B in the combinations which make it possible to obtain a microbial growth percentage of less than or equal to 25%.
When the FIC index value is less than or equal to 1, it is considered that the combination of test compounds has a synergistic effect.
The microbial strain Aspergillus niger ATCC 6275, and a double-concentration Sabouraud broth liquid culture medium supplemented with polyoxyethylenated (20 OE) sorbitan monopalmitate (Tween 40 from Croda) and Phytagel® BioReagent were used (i.e. a mixture of 5 g of Phytagel+0.6 g Tween 40+60 g of Sabouraud broth).
A 96-well microplate at an incubation temperature of 32.5° C. is used.
The incubation time of the microplate is from 24 to 48 hours aerobically.
A 10% (weight/volume) stock solution was prepared by mixing 1 g of compound in 9 ml of aqueous 1‰ agar solution. Successive dilutions were made with the 1‰ agar solution. • Test of compounds A and B alone
50 μL of each of the daughter solutions obtained containing compound A or B are added to the microplate wells. 100 μL of Sabouraud liquid nutrient broth inoculated with the strain Aspergillus niger and 50 μL of aqueous 1‰ agar solution are also added thereto. • Test of compounds A and B as a mixture
50 μL of each of the daughter solutions obtained containing compound A and 50 μL of each of the daughter solutions obtained containing compound B are added to the microplate wells. 100 μL of Sabouraud liquid nutrient broth inoculated at double concentration with the strain Aspergillus niger are also added thereto.
A positive microbial growth control was also prepared. The positive microbial growth control corresponds to a mixture of 100 μL of aqueous 1‰ agar solution with 100 μL of Sabouraud liquid nutrient broth inoculated at double concentration with the strain Aspergillus niger in the absence of compounds A and B.
An absorbance control was performed in parallel on compounds A and B alone. This control corresponds to 100 μL of double concentration sterile Sabouraud liquid nutrient broth+100 μL of double concentration compound A or B.
In the three cases (absorbance control, growth control and test), the final volume present in each of the microplate wells is 200 μL.
In the two cases (test and control), the inoculum represents the concentration of the strain Aspergillus niger present in the final volume of the wells (200 μL) and is between 2 and 6×10^5 cfu/ml of Aspergillus niger.
The minimum inhibitory concentration (MIC) of each compound A and B alone and in combination was determined in a known manner by means of optical density measurements at a wavelength of 620 nm.

[1] = first concentration giving growth <= 25%

Row | % MIC of A alone [1] | % MIC of B alone [1] | Structure (SMILES) | microbial growth percentage (0.0625 weight % A alone (0 B)) | microbial growth percentage (0.125 weight % A alone (0 B)) | microbial growth percentage (0.25 weight % A alone (0 B)) | microbial growth percentage (0.0125 weight % B alone (0 A)) | microbial growth percentage (0.25 weight % B alone (0 A)) | microbial growth percentage (0.5 weight % B alone (0 A))
1 | 0.25% | – | CCOc1cc(CCC(C)=O)ccc1O [A, 4-(3-ethoxy-4-hydroxyphenyl)butan-2-one] | 79% | 41% | 5% | – | – | –
2 | – | 0.5% | OCC(O)COc1ccc(Cl)cc1 (centres unmarked) [B, 3-(4-chlorophenoxy)-1,2-propanediol] | – | – | – | 71% | 38% | 1%
